In the NIST ThermoML archive (doi:10.1007/s10765-007-0223-x):
Where “and” joins values, the source holds several entries; their conditions need not be identical. Identical values can stand only once. Numbers after ± are expanded uncertainties.

Experiments:
[1] = 101 kPa, Liquid; for speed of sound: Single path-length method
[2] = xn = mol fraction of the nth substance listed; conditions: 101 kPa, Liquid, x1 = 1; for speed of sound: Single path-length method

Question: Which results are given for `CC(C)CC(C)(C)C` [2,2,4-trimethylpentane]?
Answer: mass density ([1]; 288.15 K): 695.948 ± 0.62 kg/m3; speed of sound ([1]; 288.15 K): 1124.3 ± 2.1 m/s; mass density ([1]; 290.65 K): 693.91 ± 0.63 kg/m3; speed of sound ([1]; 290.65 K): 1113.8 ± 2.1 m/s; mass density ([1]; 293.15 K): 691.861 ± 0.63 kg/m3; speed of sound ([1]; 293.15 K): 1103.3 ± 2.1 m/s; mass density ([1]; 295.65 K): 689.809 ± 0.63 kg/m3; speed of sound ([1]; 295.65 K): 1092.7 ± 2.1 m/s; mass density ([1]; 298.15 K): 687.749 ± 0.64 kg/m3; speed of sound ([1]; 298.15 K): 1082.2 ± 2.1 m/s; mass density ([1]; 300.65 K): 685.687 ± 0.64 kg/m3; speed of sound ([1]; 300.65 K): 1071.7 ± 2.1 m/s; mass density ([1]; 303.15 K): 683.618 ± 0.64 kg/m3; speed of sound ([1]; 303.15 K): 1061.3 ± 2.1 m/s; mass density ([1]; 305.65 K): 681.542 ± 0.65 kg/m3; speed of sound ([1]; 305.65 K): 1050.9 ± 2.1 m/s; mass density ([1]; 308.15 K): 679.459 ± 0.65 kg/m3; speed of sound ([1]; 308.15 K): 1040.5 ± 2.1 m/s; mass density ([1]; 310.65 K): 677.373 ± 0.65 kg/m3; speed of sound ([1]; 310.65 K): 1030.2 ± 2.1 m/s; mass density ([1]; 313.15 K): 675.278 ± 0.66 kg/m3; speed of sound ([1]; 313.15 K): 1019.9 ± 2.1 m/s; mass density ([1]; 315.65 K): 673.177 ± 0.66 kg/m3; speed of sound ([1]; 315.65 K): 1009.7 ± 2.1 m/s; mass density ([1]; 318.15 K): 671.069 ± 0.66 kg/m3; speed of sound ([1]; 318.15 K): 999.53 ± 2.1 m/s; mass density ([1]; 320.65 K): 668.954 ± 0.67 kg/m3; speed of sound ([1]; 320.65 K): 989.37 ± 2.1 m/s; mass density ([1]; 323.15 K): 666.832 ± 0.67 kg/m3; speed of sound ([1]; 323.15 K): 979.25 ± 2.1 m/s

Question: Which results are given for `CC(C)(C)O` [2-methylpropan-2-ol]?
Answer: mass density ([1]; 301.65 K): 777.762 ± 0.51 kg/m3; speed of sound ([1]; 301.65 K): 1109 ± 2.2 m/s; mass density ([1]; 303.15 K): 775.212 ± 0.51 kg/m3; speed of sound ([1]; 303.15 K): 1099 ± 2.1 m/s; mass density ([1]; 305.65 K): 772.623 ± 0.51 kg/m3; speed of sound ([1]; 305.65 K): 1088.3 ± 2.1 m/s; mass density ([1]; 308.15 K): 770.015 ± 0.52 kg/m3; speed of sound ([1]; 308.15 K): 1077.7 ± 2.1 m/s; mass density ([1]; 310.65 K): 767.391 ± 0.52 kg/m3; speed of sound ([1]; 310.65 K): 1067.2 ± 2.1 m/s; mass density ([1]; 313.15 K): 764.739 ± 0.52 kg/m3; speed of sound ([1]; 313.15 K): 1056.7 ± 2.1 m/s; mass density ([1]; 315.65 K): 762.054 ± 0.53 kg/m3; speed of sound ([1]; 315.65 K): 1046.1 ± 2.1 m/s; mass density ([1]; 318.15 K): 759.355 ± 0.53 kg/m3; speed of sound ([1]; 318.15 K): 1035.7 ± 2.1 m/s; mass density ([1]; 320.65 K): 756.633 ± 0.54 kg/m3; speed of sound ([1]; 320.65 K): 1025.2 ± 2.1 m/s; mass density ([1]; 323.15 K): 753.891 ± 0.54 kg/m3; speed of sound ([1]; 323.15 K): 1014.8 ± 2.1 m/s

Question: Which results are given for `COC(C)(C)C` [2-methoxy-2-methylpropane]?
Answer: mass density ([1]; 288.15 K): 744.861 ± 0.55 kg/m3; speed of sound ([1]; 288.15 K): 1083.4 ± 2.1 m/s and 1082.1 ± 2.1 m/s; mass density ([1]; 290.65 K): 742.259 ± 0.56 kg/m3; speed of sound ([1]; 290.65 K): 1071.6 ± 2.1 m/s and 1070.6 ± 2.1 m/s; mass density ([1]; 293.15 K): 739.654 ± 0.56 kg/m3; speed of sound ([1]; 293.15 K): 1060 ± 2.1 m/s and 1059.1 ± 2.1 m/s; mass density ([1]; 295.65 K): 737.036 ± 0.56 kg/m3; speed of sound ([1]; 295.65 K): 1048.5 ± 2.1 m/s and 1047.8 ± 2.1 m/s; mass density ([1]; 298.15 K): 734.406 ± 0.57 kg/m3; speed of sound ([1]; 298.15 K): 1036.9 ± 2.1 m/s and 1036.6 ± 2.1 m/s; mass density ([1]; 300.65 K): 731.766 ± 0.57 kg/m3; speed of sound ([1]; 300.65 K): 1025.4 ± 2.1 m/s; mass density ([1]; 301.65 K): 732.643 ± 0.57 kg/m3; speed of sound ([1]; 301.65 K): 1024.3 ± 2.2 m/s; mass density ([1]; 303.15 K): 729.112 ± 0.58 kg/m3 and 729.99 ± 0.57 kg/m3; speed of sound ([1]; 303.15 K): 1013.9 ± 2.1 m/s and 1014 ± 2.1 m/s and 1012.8 ± 2.1 m/s; mass density ([1]; 305.65 K): 727.325 ± 0.58 kg/m3 and 726.444 ± 0.58 kg/m3; speed of sound ([1]; 305.65 K): 1002.4 ± 2.1 m/s and 1002.7 ± 2.1 m/s and 1001.4 ± 2.1 m/s; mass density ([1]; 308.15 K): 723.763 ± 0.58 kg/m3 and 724.645 ± 0.58 kg/m3; speed of sound ([1]; 308.15 K): 990.99 ± 2.1 m/s and 991.34 ± 2.1 m/s and 989.9 ± 2.1 m/s; mass density ([1]; 310.65 K): 721.069 ± 0.59 kg/m3 and 721.953 ± 0.59 kg/m3; speed of sound ([1]; 310.65 K): 979.62 ± 2.1 m/s and 980 ± 2.1 m/s and 978.47 ± 2.1 m/s; mass density ([1]; 313.15 K): 718.357 ± 0.59 kg/m3 and 719.245 ± 0.59 kg/m3; speed of sound ([1]; 313.15 K): 968.16 ± 2.1 m/s and 968.63 ± 2.1 m/s and 967.03 ± 2.1 m/s; mass density ([1]; 315.65 K): 715.636 ± 0.6 kg/m3 and 716.525 ± 0.59 kg/m3; speed of sound ([1]; 315.65 K): 956.8 ± 2.1 m/s and 957.31 ± 2.1 m/s and 955.73 ± 2.1 m/s; mass density ([1]; 318.15 K): 712.897 ± 0.6 kg/m3 and 713.786 ± 0.6 kg/m3; speed of sound ([1]; 318.15 K): 945.54 ± 2.1 m/s and 946.03 ± 2.1 m/s and 944.34 ± 2.1 m/s; mass density ([1]; 320.65 K): 710.141 ± 0.6 kg/m3 and 711.028 ± 0.6 kg/m3; speed of sound ([1]; 320.65 K): 934.24 ± 2.1 m/s and 934.76 ± 2.1 m/s and 933.01 ± 2.1 m/s; mass density ([1]; 323.15 K): 707.381 ± 0.61 kg/m3 and 708.28 ± 0.61 kg/m3; speed of sound ([1]; 323.15 K): 922.97 ± 2.1 m/s and 923.46 ± 2.1 m/s and 921.93 ± 2.1 m/s

Question: What does the source list for `c1ccccc1` [benzene]?
Answer: mass density ([1]; 288.15 K): 884.183 ± 0.35 kg/m3; speed of sound ([1]; 288.15 K): 1345.5 ± 2.1 m/s; mass density ([1]; 290.65 K): 881.521 ± 0.35 kg/m3; speed of sound ([1]; 290.65 K): 1333.4 ± 2.1 m/s; mass density ([1]; 293.15 K): 878.856 ± 0.35 kg/m3; speed of sound ([1]; 293.15 K): 1321.6 ± 2.1 m/s; mass density ([1]; 295.65 K): 876.19 ± 0.36 kg/m3; speed of sound ([1]; 295.65 K): 1309.9 ± 2.1 m/s; mass density ([1]; 298.15 K): 873.52 ± 0.36 kg/m3; speed of sound ([1]; 298.15 K): 1298.3 ± 2.1 m/s; mass density ([1]; 300.65 K): 870.847 ± 0.37 kg/m3; speed of sound ([1]; 300.65 K): 1286.7 ± 2.1 m/s; mass density ([1]; 303.15 K): 868.172 ± 0.37 kg/m3; speed of sound ([1]; 303.15 K): 1275.1 ± 2.1 m/s; mass density ([1]; 305.65 K): 865.49 ± 0.37 kg/m3; speed of sound ([1]; 305.65 K): 1263.6 ± 2.1 m/s; mass density ([1]; 308.15 K): 862.805 ± 0.38 kg/m3; speed of sound ([1]; 308.15 K): 1252.1 ± 2.1 m/s; mass density ([1]; 310.65 K): 860.118 ± 0.38 kg/m3; speed of sound ([1]; 310.65 K): 1240.7 ± 2.1 m/s; mass density ([1]; 313.15 K): 857.425 ± 0.39 kg/m3; speed of sound ([1]; 313.15 K): 1229.3 ± 2.1 m/s; mass density ([1]; 315.65 K): 854.73 ± 0.39 kg/m3; speed of sound ([1]; 315.65 K): 1217.9 ± 2.1 m/s; mass density ([1]; 318.15 K): 852.032 ± 0.39 kg/m3; speed of sound ([1]; 318.15 K): 1206.7 ± 2.1 m/s; mass density ([1]; 320.65 K): 849.331 ± 0.4 kg/m3; speed of sound ([1]; 320.65 K): 1195.5 ± 2.1 m/s; mass density ([1]; 323.15 K): 846.641 ± 0.4 kg/m3; speed of sound ([1]; 323.15 K): 1184.6 ± 2.1 m/s

Question: Which results are given for `COC(C)(C)C` [2-methoxy-2-methylpropane] + CCc1ccccc1?
Answer: speed of sound ([2]; 288.15 K): 1083.4 ± 2.1 m/s; mass density ([2]; 288.15 K): 744.861 ± 0.55 kg/m3; speed of sound ([2]; 290.65 K): 1071.6 ± 2.1 m/s; mass density ([2]; 290.65 K): 742.259 ± 0.56 kg/m3; speed of sound ([2]; 293.15 K): 1060 ± 2.1 m/s; mass density ([2]; 293.15 K): 739.654 ± 0.56 kg/m3; speed of sound ([2]; 295.65 K): 1048.5 ± 2.1 m/s; mass density ([2]; 295.65 K): 737.036 ± 0.56 kg/m3; speed of sound ([2]; 298.15 K): 1036.9 ± 2.1 m/s; mass density ([2]; 298.15 K): 734.406 ± 0.57 kg/m3; speed of sound ([2]; 300.65 K): 1025.4 ± 2.1 m/s; mass density ([2]; 300.65 K): 731.766 ± 0.57 kg/m3; speed of sound ([2]; 303.15 K): 1013.9 ± 2.1 m/s; mass density ([2]; 303.15 K): 729.112 ± 0.58 kg/m3; speed of sound ([2]; 305.65 K): 1002.4 ± 2.1 m/s; mass density ([2]; 305.65 K): 726.444 ± 0.58 kg/m3; speed of sound ([2]; 308.15 K): 990.99 ± 2.1 m/s; mass density ([2]; 308.15 K): 723.763 ± 0.58 kg/m3; speed of sound ([2]; 310.65 K): 979.62 ± 2.1 m/s; mass density ([2]; 310.65 K): 721.069 ± 0.59 kg/m3; speed of sound ([2]; 313.15 K): 968.16 ± 2.1 m/s; mass density ([2]; 313.15 K): 718.357 ± 0.59 kg/m3; speed of sound ([2]; 315.65 K): 956.8 ± 2.1 m/s; mass density ([2]; 315.65 K): 715.636 ± 0.6 kg/m3; speed of sound ([2]; 318.15 K): 945.54 ± 2.1 m/s; mass density ([2]; 318.15 K): 712.897 ± 0.6 kg/m3; speed of sound ([2]; 320.65 K): 934.24 ± 2.1 m/s; mass density ([2]; 320.65 K): 710.141 ± 0.6 kg/m3; speed of sound ([2]; 323.15 K): 922.97 ± 2.1 m/s; mass density ([2]; 323.15 K): 707.381 ± 0.61 kg/m3
